# Target: T1, GLP-1R (Homo sapiens, UniProt P43220)
# T1 construct: host or cells: GLP-1R CRE-bla CHO-K1 cells
# Experiment: EC20 GLP-1(9-36) PAM cAMP assay: dose response of compound in the presence of fixed concentration of GLP-1(9-36)
# Type: cell-based
# Conditions: GLP-1R CRE-bla CHO-K1 cells, compound dose response with fixed concentration of GLP-1(9-36), read-out: EC20 GLP-1(9-36) PAM EC50
# Method in brief: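 GLP-1R CRE-bla CHO-K1 cells treated 30 min at 37 °C with 12-point compound dose response plus fixed EC20 GLP-1(9-36), with IBMX, in HBSS/HEPES/0.1% BSA pH 7.4. Total cAMP measured by luminescent detection against standard curve; EC50 and Emax from non-linear regression.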
# T1 sequence (P43220 24-463): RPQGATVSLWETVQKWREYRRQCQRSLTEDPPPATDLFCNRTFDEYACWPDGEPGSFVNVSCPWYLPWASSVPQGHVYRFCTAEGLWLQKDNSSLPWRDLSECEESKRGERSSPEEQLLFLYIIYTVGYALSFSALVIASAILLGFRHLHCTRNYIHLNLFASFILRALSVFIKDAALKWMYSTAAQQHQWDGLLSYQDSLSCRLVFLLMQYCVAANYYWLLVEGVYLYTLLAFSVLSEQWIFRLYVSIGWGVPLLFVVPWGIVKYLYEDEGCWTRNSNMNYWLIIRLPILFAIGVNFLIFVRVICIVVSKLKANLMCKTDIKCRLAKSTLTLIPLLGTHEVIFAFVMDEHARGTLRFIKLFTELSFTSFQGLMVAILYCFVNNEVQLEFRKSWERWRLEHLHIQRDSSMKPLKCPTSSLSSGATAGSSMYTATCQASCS
# T1 sequence (P01275 100-127 partner limits assumed): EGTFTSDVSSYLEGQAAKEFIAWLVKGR
row,SMILES,EC50 [nM]
1,CC(C)(C)c1ccc(C(=O)N[C@@H](Cc2ccc(-c3ncc(-c4ccc(-c5ccc(C6CCCCC6)cc5)cc4F)cn3)cc2)C(=O)N2CC(C(=O)O)C2)s1 [Compound 1212],< 800
2,C[C@@H](NC(=O)[C@H](Cc1ccc(-c2ncc(/C=C/c3ccccc3C(F)(F)F)cn2)cc1)NC(=O)c1ccc(C(C)(C)C)s1)C(=O)O [Compound 1260],800 to 2500
3,CCCc1ccc(C2CCCN(c3cnc(-c4ccc(C[C@H](NC(=O)c5ccc(C(C)(C)C)s5)C(=O)N5CC(C(=O)O)C5)cc4)nc3)CC2)cc1 (stereo partly drawn) [Compound 1507],800 to 2500
4,C[C@@H](NC(=O)[C@H](Cc1ccc(-c2ncc(-c3ccc(C4CCCCC4)cc3)cn2)cc1)NC(=O)c1ccc(C(C)(C)C)s1)C(=O)O [Compound 1282],< 800
5,CCCCOc1ccc(-c2ccc(-c3cnc(-c4ccc(C[C@H](NC(=O)c5ccc(C(C)(C)C)s5)C(=O)N5CC(C(=O)O)C5)cc4)nc3)c(F)c2)cc1 [Compound 1332],< 800
6,C=C(N[C@H](Cc1ccccc1)C(=O)O)[C@H](Cc1ccc(-c2ncc(N3CCC([C@H]4CC[C@H](CCC)CC4)CC3)cn2)cc1)NC(=O)c1ccc(C(C)(C)C)s1 [Compound 1464],< 800
7,CCc1ccc(C#Cc2cnc(-c3ccc(C[C@H](NC(=O)c4ccc(C(C)(C)C)s4)C(=O)N[C@H](C)C(=O)O)cc3)nc2)cc1 [Compound 1276],800 to 2500
8,C[C@@H](NC(=O)[C@H](Cc1ccc(-c2ncc(-c3ccc(SC4CC4)cc3)cn2)cc1)NC(=O)c1ccc(C(C)(C)C)s1)C(=O)O [Compound 1301],5000 to 10000
9,C[C@@H](NC(=O)[C@H](Cc1ccc(-c2ncc(/C=C/c3cc(F)cc(F)c3)cn2)cc1)NC(=O)c1ccc(C(C)(C)C)s1)C(=O)O [Compound 1256],5000 to 10000
10,"CCCCc1ccc(C2CCN(c3cnc(-c4ccc(C[C@H](NC(=O)c5ccc(C(C)(C)C)s5)C(=O)N5CC(C(=O)O)C5)cc4)nc3)CC2)cc1 [Compound 1412, (S)-1-(2-(5-(tert-butyl)thiophene-2-carboxamido)-3-(4-(5-(4-(4-butylphenyl)-piperidin-1-yl)pyrimidin-2-yl)phenyl)propanoyl)azetidine-3-carboxylic acid]",< 800
11,CCC(C)(C)c1ccc(C(=O)N[C@@H](Cc2ccc(-c3ncc(-c4ccc(OCCCC(C)C)cc4)cn3)cc2)C(=O)N2CC(C(=O)O)C2)cc1 [Compound 1237],2500 to 5000
12,CCCc1ccc(C(=O)N[C@@H](Cc2ccc(-c3ncc(-c4ccc([C@H]5CC[C@H](CC)CC5)cc4)cn3)cc2)C(=O)O)cc1 [Compound 1372],800 to 2500
13,CCC[C@H]1CC[C@H](C2CCN(c3cnc(-c4ccc(C[C@H](NC(=O)c5ccc(C(C)(C)C)s5)C(=O)N[C@H]5C[C@H](C(=O)O)C5)cc4)nc3)CC2)CC1 [Compound 1447],< 800
14,CCCc1ccc(-c2ccc(-c3cnc(-c4ccc(C[C@H](NC(=O)C5CCC(C(C)(C)C)CC5)C(=O)N5CC(C(=O)O)C5)cc4)nc3)c(F)c2)cc1 (stereo partly drawn) [Compound 1401],< 800

# Same assay, conditions: dose response of compound in presence of fixed concentration of GLP-1(9-36), GLP-1R CRE-bla CHO-K1 cells, read-out: EC20 GLP-1(9-36) PAM EC50
row,SMILES,EC50 [nM]
1,CCCCCCc1noc(-c2cnc(-c3ccc(C[C@H](NC(=O)c4ccc(C(C)(C)C)cc4)C(=O)NCCC(=O)O)cc3)nc2)n1 [Compound 692],5000 to 10000
2,CCCCCCCOc1ccc(-c2cnc(-c3ccc(C[C@H](NC(=O)c4ccc(C(C)(C)C)cc4)C(=O)N4CC=CC4C(=O)O)cc3)nc2)cc1 (stereo partly drawn) [Compound 563],< 800
3,CC(C)(C)c1ccc(C(=O)N[C@@H](Cc2ccc(-c3ncc(-c4ccc(C5CCCC5)cc4)cn3)cc2)C(=O)N2CC[C@H](C(=O)O)C2)s1 [Compound 1084],< 800
4,CC(C)(C)c1ccc(C(=O)N[C@@H](Cc2ccc(-c3ncc(-c4ccc(OCCC5CCCCC5)cc4)cn3)cc2)C(=O)N2CC[C@H](C(=O)O)C2)s1 [Compound 774],800 to 2500
5,"CCCCCCCOc1ccc(-c2cnc(-c3ccc(C[C@H](NC(=O)c4ccc(C(C)(C)C)s4)C(=O)N[C@@H](CC(=O)OCc4ccccc4)C(=O)O)cc3)nc2)cc1 [Compound 524, (S)-4-(benzyloxy)-2-((S)-2-(5-(tert-butyl)thiophene-2-carboxamido)-3-(4-(5-(4-(heptyloxy)phenyl)pyrimidin-2-yl)phenyl)propanamido)-4-oxobutanoic acid]",< 800
6,CCCCCCCOc1ccc(-c2cnc(-c3ccc(C[C@H](NC(=O)c4ccc(C(C)(C)C)cc4)C(=O)N[C@@H](Cc4cnn(C)c4)C(=O)O)cc3)nc2)cc1 [Compound 576],800 to 2500
7,CCCCCCCOc1ccc(-c2cnc(-c3ccc(C[C@H](NC(=O)c4ccc(CC)s4)C(=O)N[C@H](C)C(=O)O)cc3)nc2)cc1 [Compound 839],800 to 2500
8,CCCCCCCOc1ccc(-c2cnc(-c3ccc(C[C@H](NC(=O)c4ccc(Oc5ccccc5)cc4)C(=O)N[C@H](C)C(=O)O)cc3)nc2)cc1 [Compound 824],< 800
9,CCCCCCCOc1ccc(-c2cnc(-c3ccc(C[C@H](NC(=O)c4ccc(C(C)(C)C)s4)C(=O)N4CCCNCC4)cc3)nc2)cc1 [Compound 966],5000 to 10000
10,Cc1cc(C)n(-c2ccc(-c3cnc(-c4ccc(C[C@H](NC(=O)c5ccc(C(C)(C)C)s5)C(=O)N[C@H](C)C(=O)O)cc4)nc3)cc2)n1 [Compound 1006],800 to 2500
11,CCCCCCCOc1ccc(-c2cnc(-c3ccc(C[C@H](NC(=O)c4ccc(OCC)cc4)C(=O)N[C@H](C)C(=O)O)cc3)nc2)cc1 [Compound 818],800 to 2500
12,CCCCCCCOc1ccc(-c2cnc(-c3ccc(C[C@H](NC(=O)c4ccc(C5CC5)cc4)C(=O)N[C@H](C)C(=O)O)cc3)nc2)cc1 [Compound 827],800 to 2500
13,CCCCCCCOc1ccc(-c2cnc(-c3ccc(C[C@H](NC(=O)c4ccc(C(C)(C)C)s4)C(=O)NC(C(=O)O)C(O)c4cscn4)cc3)nc2)cc1 (stereo partly drawn) [Compound 903],5000 to 10000
14,CC(C)Oc1ccc(-c2cnc(-c3ccc(C[C@H](NC(=O)c4ccc(C(C)(C)C)cc4)C(=O)NCCC(=O)O)cc3)nc2)cc1 [Compound 695],2500 to 5000
15,CCCCCCCOc1ccc(-c2cnc(-c3ccc(C[C@H](NC(=O)c4ccc(C(C)(C)C)s4)C(=O)N[C@@H](C(=O)O)C(C)c4ccccc4)cc3)nc2)cc1 (stereo partly drawn) [Compound 898],2500 to 5000
16,CCCCCCCOc1ccc(-c2cnc(-c3ccc(C[C@H](NC(=O)c4ccc(C(C)(C)C)cc4)C(=O)N4C[C@H](N(C)C)C[C@H]4C(=O)O)cc3)nc2)cc1 [Compound 622],800 to 2500
17,CC[C@H]1CC[C@H](c2ccc(-c3cnc(-c4ccc(C[C@H](NC(=O)c5ccc(OC(C)C)cc5)C(=O)N5CC(C(=O)O)C5)cc4)nc3)cc2)CC1 [Compound 1160],< 800
18,CCCCCCCOc1ccc(-c2cnc(-c3ccc(C[C@H](NC(=O)c4ccc(C(C)(C)C)s4)C(=O)NC(C(=O)O)c4ccccc4C(F)(F)F)cc3)nc2)cc1 (stereo partly drawn) [Compound 596],800 to 2500
19,CC(C)(C)c1ccc(C(=O)N[C@@H](Cc2ccc(-c3ncc(-c4ccc(-c5cc(Cl)cc(Cl)c5)cc4F)cn3)cc2)C(=O)N2CC(C(=O)O)C2)s1 [Compound 1198],< 800
20,CCCCCCCOc1ccc(-c2cnc(-c3ccc(C[C@H](NC(=O)c4ccc(C(C)(C)C)s4)C(=O)NC4(C(=O)O)CC4)cc3)nc2)cc1 [Compound 604],800 to 2500
21,CCCCCCCOc1ccc(-c2cnc(-c3ccc(C[C@H](NC(=O)c4ccc(C(C)(C)C)s4)C(=O)N4CC(F)(C(=O)O)C4)cc3)nc2)cc1 [Compound 878],< 800
22,CC(C)(C)c1ccc(C(=O)N[C@@H](Cc2ccc(-c3ncc(-c4ccc(OCCC5CCCC5)cc4)cn3)cc2)C(=O)N2CC(C(=O)O)C2)s1 [Compound 920],800 to 2500
